Legend:
Format in all cases: in vivo, human
healthy subjects = assay: Safety and tolerability (TEAEs), part 1, single inhaled dose
Experimental: Subjects were discharged 24 h post-dose (day 2) provided there were no safety concerns, and returned for three outpatient visits on days 3, 8 and 14 post-dose, with a post-study follow-up between days 26 and 30. Safety and PK assessments were made at predetermined time-points.
Following completion of dosing for the final subject in each dosing cohort, an interim dose review meeting was held with a safety committee consisting of the principal investigator, medical monitor, pharmacokineticist and statistician to review the safety, tolerability and PK data (study design schematic shown in figure 1). The study statistician and pharmacokineticist were unblinded at the end of each cohort in order to conduct the analyses required for dose review decisions. The primary end-point was the safety and tolerability of single or multiple doses of TD139 in healthy subjects or IPF patients, respectively.

PAI-1 = assay: Plasma biomarker PAI-1; conditions: for PAI-1 raw data, Mean (SD) / PAI-1 least square means % baseline±SEM: IPF patients
Experimental: (§1) All patients, investigators, sites and study sponsor personnel were blinded to the study group assignments throughout the study. Patients underwent study-specific assessments on days 2, 3, 7, 14 and 15, and a post-study assessment was carried out 26–30 days after the last day of the study period. Assessments included vital signs (supine blood pressure, pulse, oxygen saturation, oral temperature and respiratory rate), spirometry, 12-lead ECG, physical examination, laboratory safety screen (haematology, biochemistry, urinalysis and urinary drugs of abuse screen) and blood sampling for PK measurements. All adverse events and concomitant medications were recorded from the time of the screening visit until the post-study follow-up visit. BAL was performed at day −1 (24 h before the first dose) and at day 14 (2 h after the last dose). The BAL procedure was performed as per international guidelines. Briefly, 240 mL of 0.9% saline at room temperature was instilled in 40 mL aliquots into the right middle lobe and aspirated by suction after each aliquot.
(§2) BAL cells were separated from fluid by centrifugation, and cells were collected, stained with antibodies (supplementary material) and then fixed before analysis using a LSR Fortessa flow cytometer (Becton Dickinson, Franklin Lakes, NJ, USA). Data were analysed using FlowJo software (Tree Star, Ashland, OR, USA). Macrophages were identified as having high side scatter properties and human leukocyte antigen-DR positivity. Gal-3 expression (mean fluorescence intensity) was determined from the macrophage gate (supplementary figures S1 and S2). […] Samples were analysed by magnetic Luminex assay (R&D Systems, Minneapolis, MN, USA) or ELISA.
(§3) For part 2 of the study, placebos were combined from the three dose-specific cohorts into a pooled control group (n=9). For alveolar macrophage Gal-3 expression and the plasma biomarkers, ANCOVA was performed for percentage of baseline ((day 14/day 1)×100). The ANCOVA model included effects for treatment group and baseline (day 1) value. […] An additional analysis including dose as a continuous covariate was also performed. The Pearson correlation coefficient (r) and associated p-value were calculated for percentage of baseline and day 14 values between plasma biomarkers and alveolar macrophage Gal-3 expression. […] The analysis is exploratory and there was no pre-planned adjustment for multiple testing; the study was not powered for this. Alveolar macrophage Gal-3 expression was considered the primary exploratory analysis with the pre-selected biomarkers secondary. A Bonferroni correction for multiple testing of the secondary end-points comparing the 10 mg group with placebo gives a critical value of 0.0063. Data are presented as the difference in least square means with 95% confidence interval and p-value unless otherwise stated. All analyses were performed using SAS version 9.4 (SAS Institute, Cary, NC, USA). […]

MMP-8 = assay: Plasma biomarker MMP-8; conditions: for MMP-8 raw data, Mean (SD) / MMP-8 least square means % baseline±SEM: IPF patients
Experimental: as §1, §2, §3

CCL5 (RANTES) = assay: Plasma biomarker CCL5; conditions: for CCL5 (RANTES) raw data, Mean (SD) / CCL5 (RANTES) least square means % baseline±SEM: IPF patients
Experimental: as §1, §2, §3

MIF = assay: Plasma biomarker MIF; conditions: for MIF raw data, Mean (SD) / MIF least square means % baseline±SEM: IPF patients
Experimental: as §1, §2, §3

[1] = healthy subjects, single inhaled 0.15 mg
[2] = healthy subjects, single inhaled 1.5 mg
[3] = healthy subjects, single inhaled 3 mg
[4] = healthy subjects, single inhaled 10 mg
[5] = healthy subjects, single inhaled 20 mg
[6] = healthy subjects, single inhaled 50 mg

Compound: OC[C@H]1O[C@@H](S[C@@H]2O[C@H](CO)[C@H](O)[C@H](n3cc(-c4cccc(F)c4)nn3)[C@H]2O)[C@H](O)[C@@H](n2cc(-c3cccc(F)c3)nn2)[C@H]1O [TD139]
- safety and tolerability (healthy subjects; healthy subjects, single doses up to 50 mg): safe and well tolerated
- Subjects reporting ≥1 TEAE: Serious TEAE (healthy subjects; [1]): 0 n (%)
- Subjects reporting ≥1 TEAE: TEAE (healthy subjects; [1]): 0 n (%)
- Subjects reporting ≥1 TEAE: TEAE leading to withdrawal (healthy subjects; [1]): 0 n (%)
- Subjects with TEAE by relationship to study IMP: Almost definite (healthy subjects; [1]): 0 n (%)
- Subjects with TEAE by relationship to study IMP: Possible (healthy subjects; [1]): 0 n (%)
- Subjects with TEAE by relationship to study IMP: Probable (healthy subjects; [1]): 0 n (%)
- Subjects with TEAE by relationship to study IMP: Unlikely (healthy subjects; [1]): 0 n (%)
- Subjects with TEAE by severity: Mild (healthy subjects; [1]): 0 n (%)
- TEAEs (healthy subjects; [1]): 0 n
- Subjects reporting ≥1 TEAE: Serious TEAE (healthy subjects; [2]): 0 n (%)
- Subjects reporting ≥1 TEAE: TEAE (healthy subjects; [2]): 0 n (%)
- Subjects reporting ≥1 TEAE: TEAE leading to withdrawal (healthy subjects; [2]): 0 n (%)
- Subjects with TEAE by relationship to study IMP: Almost definite (healthy subjects; [2]): 0 n (%)
- Subjects with TEAE by relationship to study IMP: Possible (healthy subjects; [2]): 0 n (%)
- Subjects with TEAE by relationship to study IMP: Probable (healthy subjects; [2]): 0 n (%)
- Subjects with TEAE by relationship to study IMP: Unlikely (healthy subjects; [2]): 0 n (%)
- Subjects with TEAE by severity: Mild (healthy subjects; [2]): 0 n (%)
- TEAEs (healthy subjects; [2]): 0 n
- Subjects reporting ≥1 TEAE: Serious TEAE (healthy subjects; [3]): 0 n (%)
- Subjects reporting ≥1 TEAE: TEAE (healthy subjects; [3]): 2 (50.0) n (%)
- Subjects reporting ≥1 TEAE: TEAE leading to withdrawal (healthy subjects; [3]): 0 n (%)
- Subjects with TEAE by relationship to study IMP: Almost definite (healthy subjects; [3]): 1 (25.0) n (%)
- Subjects with TEAE by relationship to study IMP: Possible (healthy subjects; [3]): 0 n (%)
- Subjects with TEAE by relationship to study IMP: Probable (healthy subjects; [3]): 0 n (%)
- Subjects with TEAE by relationship to study IMP: Unlikely (healthy subjects; [3]): 1 (25.0) n (%)
- Subjects with TEAE by severity: Mild (healthy subjects; [3]): 2 (50.0) n (%)
- TEAEs (healthy subjects; [3]): 2 n
- Subjects reporting ≥1 TEAE: Serious TEAE (healthy subjects; [4]): 0 n (%)
- Subjects reporting ≥1 TEAE: TEAE (healthy subjects; [4]): 3 (75.0) n (%)
- Subjects reporting ≥1 TEAE: TEAE leading to withdrawal (healthy subjects; [4]): 0 n (%)
- Subjects with TEAE by relationship to study IMP: Almost definite (healthy subjects; [4]): 3 (75.0) n (%)
- Subjects with TEAE by relationship to study IMP: Possible (healthy subjects; [4]): 2 (50.0) n (%)
- Subjects with TEAE by relationship to study IMP: Probable (healthy subjects; [4]): 0 n (%)
- Subjects with TEAE by relationship to study IMP: Unlikely (healthy subjects; [4]): 0 n (%)
- Subjects with TEAE by severity: Mild (healthy subjects; [4]): 3 (75.0) n (%)
- TEAEs (healthy subjects; [4]): 7 n
- Subjects reporting ≥1 TEAE: Serious TEAE (healthy subjects; [5]): 0 n (%)
- Subjects reporting ≥1 TEAE: TEAE (healthy subjects; [5]): 4 (100.0) n (%)
- Subjects reporting ≥1 TEAE: TEAE leading to withdrawal (healthy subjects; [5]): 0 n (%)
- Subjects with TEAE by relationship to study IMP: Almost definite (healthy subjects; [5]): 4 (100.0) n (%)
- Subjects with TEAE by relationship to study IMP: Possible (healthy subjects; [5]): 1 (25.0) n (%)
- Subjects with TEAE by relationship to study IMP: Probable (healthy subjects; [5]): 1 (25.0) n (%)
- Subjects with TEAE by relationship to study IMP: Unlikely (healthy subjects; [5]): 0 n (%)
- Subjects with TEAE by severity: Mild (healthy subjects; [5]): 4 (100.0) n (%)
- TEAEs (healthy subjects; [5]): 7 n
- Subjects reporting ≥1 TEAE: Serious TEAE (healthy subjects; [6]): 0 n (%)
- Subjects reporting ≥1 TEAE: TEAE (healthy subjects; [6]): 4 (100.0) n (%)
- Subjects reporting ≥1 TEAE: TEAE leading to withdrawal (healthy subjects; [6]): 0 n (%)
- Subjects with TEAE by relationship to study IMP: Almost definite (healthy subjects; [6]): 4 (100.0) n (%)
- Subjects with TEAE by relationship to study IMP: Possible (healthy subjects; [6]): 3 (75.0) n (%)
- Subjects with TEAE by relationship to study IMP: Probable (healthy subjects; [6]): 0 n (%)
- Subjects with TEAE by relationship to study IMP: Unlikely (healthy subjects; [6]): 0 n (%)
- Subjects with TEAE by severity: Mild (healthy subjects; [6]): 4 (100.0) n (%)
- TEAEs (healthy subjects; [6]): 10 n
- biochemistry, haematology, vital signs or 12-lead ECG data (healthy subjects; part 1, healthy subjects): no clinically significant safety findings or treatment- or dose-related changes observed
- incidence of cough (healthy subjects; part 1, healthy subjects): 11.1%
- incidence of mild dysgeusia (most commonly occurring TEAE) (healthy subjects; part 1, healthy subjects): 36.1%
- PAI-1 difference in least square means % baseline (95% CI) (PAI-1; 10 mg vs placebo, ANCOVA): −151.8 (−265.3– −38.2) % baseline
- PAI-1 raw data, Mean (SD) (PAI-1; Day 14, 0.3 mg): 45736.7 (29863.26) pg/ml
- PAI-1 raw data, Mean (SD) (PAI-1; Day 14, 3 mg): 45744.4 (44222.1) pg/ml
- PAI-1 raw data, Mean (SD) (PAI-1; Day 14, 10 mg): 23122.2 (12659.84) pg/ml
- PAI-1 least square means % baseline±SEM (PAI-1; day 14, 0.3 mg once daily): 84.6±48.8 % baseline
- PAI-1 least square means % baseline±SEM (PAI-1; day 14, 3 mg once daily): 92.4±44.5 % baseline
- PAI-1 least square means % baseline±SEM (PAI-1; day 14, 10 mg once daily): 45.8±43.7 % baseline
- MMP-8 difference in least square means % baseline (95% CI) (MMP-8; 10 mg vs placebo, ANCOVA): −125.4 (−271.3–20.5) % baseline
- MMP-8 raw data, Mean (SD) (MMP-8; Day 14, 0.3 mg): 1911.5 (1577.82) pg/ml
- MMP-8 raw data, Mean (SD) (MMP-8; Day 14, 3 mg): 2263.3 (2428.78) pg/ml
- MMP-8 raw data, Mean (SD) (MMP-8; Day 14, 10 mg): 44436.7 (97465.67) pg/ml
- MMP-8 least square means % baseline±SEM (MMP-8; day 14, 0.3 mg once daily): 138.0±52.8 % baseline
- MMP-8 least square means % baseline±SEM (MMP-8; day 14, 3 mg once daily): 115.2±52.7 % baseline
- MMP-8 least square means % baseline±SEM (MMP-8; day 14, 10 mg once daily): 51.5±56.1 % baseline
- CCL5 (RANTES) difference in least square means % baseline (95% CI) (CCL5 (RANTES); 10 mg vs placebo, ANCOVA): −54.1 (−147–38.8) % baseline
- CCL5 (RANTES) raw data, Mean (SD) (CCL5 (RANTES); Day 14, 0.3 mg): 47658.1 (27017.8) pg/ml
- CCL5 (RANTES) raw data, Mean (SD) (CCL5 (RANTES); Day 14, 3 mg): 75675.6 (92820.57) pg/ml
- CCL5 (RANTES) raw data, Mean (SD) (CCL5 (RANTES); Day 14, 10 mg): 33994.2 (29435.9) pg/ml
- CCL5 (RANTES) least square means % baseline±SEM (CCL5 (RANTES); day 14, 0.3 mg once daily): 62.3±37.1 % baseline
- CCL5 (RANTES) least square means % baseline±SEM (CCL5 (RANTES); day 14, 3 mg once daily): 115.1±35.1 % baseline
- CCL5 (RANTES) least square means % baseline±SEM (CCL5 (RANTES); day 14, 10 mg once daily): 75.8±35.8 % baseline
- MIF difference in least square means % baseline (95% CI) (MIF; 10 mg vs placebo, ANCOVA): −120.2 (−339.2–98.9) % baseline
- MIF raw data, Mean (SD) (MIF; Day 14, 0.3 mg): 65871.3 (42284.53) pg/ml
- MIF raw data, Mean (SD) (MIF; Day 14, 3 mg): 38884 (35236.82) pg/ml
- MIF raw data, Mean (SD) (MIF; Day 14, 10 mg): 39660.6 (57202.1) pg/ml
- MIF least square means % baseline±SEM (MIF; day 14, 0.3 mg once daily): 123.6±83.6 % baseline
- MIF least square means % baseline±SEM (MIF; day 14, 3 mg once daily): 95.9±83.9 % baseline
- MIF least square means % baseline±SEM (MIF; day 14, 10 mg once daily): 73.9±83.7 % baseline

Source: PMC8156151 (The European Respiratory Journal, 2021)
